Where a SMILES comes first, the peptide text is derived from it. Where no end group is shown, it is not given here. [ ]: non-standard residue; d: D form. Phg(4-OMe) = COc1ccc([C@H](N)C(=O)O)cc1; dPhg = N[C@@H](C(=O)O)c1ccccc1; Phg = N[C@H](C(=O)O)c1ccccc1

The text below walks through data of US4251439A, “Pharmacologically active peptides” (Eli Lilly and Company, priority 1979, dated 1981).

The first assay deals with mice.
Experiment: not given
To be noted: administration intracerebroventricularly; cited from earlier work.
As for “H-Tyr-Gly-Gly-Phe-Met-OH [methionine enkephalin]”, the analgesic activity result was “exhibit analgesic activity”.

Test system in the next assay: not given
Experiment: not given
To be noted: administered parenterally; cited from earlier work.
As for “H-Tyr-Gly-Gly-Phe-Met-OH [methionine enkephalin]”, the useful analgesic activity result is “practically devoid of any useful analgesic activity”.

Another assay relates to mouse. Put plainly: mouse hot plate test (analgesic activity). The settings on record: subcutaneous, hot plate 52° C., 15 minutes after administration, latency until jump. The class given is in vivo. The method, then: In this test, a mouse is placed inside an upright acrylic cylinder comprising, as its base, a hot plate surface which is maintained at 52° C. The mouse is given, orally or by subcutaneous injection, a predetermined amount of test compound dissolved or suspended in a suitable carrier, and, 15 minutes after administration of the test compound, the mouse is placed on the hot plate surface. The latency in seconds until the mouse jumps from the hot plate surface is measured. […] This must occur in a dose range which produces no motor incoordination or incapacitation. The following Table records the ED50 results obtained from this test.
As for `COc1ccc([C@H](NC(=O)[C@H](Cc2ccccc2)NC(=O)CNC(=O)[C@@H](C)NC(=O)[C@@H](N)Cc2ccc(O)cc2)C(N)=O)cc1` [Example 1, L-Tyrosyl-D-alanyl-glycyl-L-phenylalanyl-L-p-methoxyphenylglycinamide] (H-Y[dA]GF[Phg(4-OMe)]-NH2), the “Analgesic Activity, Hot Plate Test ED50” value is 3.14 mg/kg. In the case of `C[C@@H](NC(=O)[C@@H](N)Cc1ccc(O)cc1)C(=O)NCC(=O)N[C@@H](Cc1ccccc1)C(=O)N[C@H](C(N)=O)c1ccccc1` [Example 2, L-Tyrosyl-D-alanyl-glycyl-L-phenylalanyl-L-phenylglycinamide] (H-Y[dA]GF[Phg]-NH2), the “Analgesic Activity, Hot Plate Test ED50” value is 0.40 mg/kg. On the same count and under the same terms, the same measure for `C[C@@H](NC(=O)[C@@H](N)Cc1ccc(O)cc1)C(=O)NCC(=O)N[C@@H](Cc1ccccc1)C(=O)N[C@@H](C(N)=O)c1ccccc1` [Example 3, L-Tyrosyl-D-alanyl-glycyl-L-phenylalanyl-D-phenylglycinamide] (H-Y[dA]GF[dPhg]-NH2): 0.23 mg/kg; for `C[C@@H](NC(=O)[C@@H](N)Cc1ccc(O)cc1)C(=O)NCC(=O)N(C)[C@@H](Cc1ccccc1)C(=O)N[C@H](C(N)=O)c1ccccc1` [Example 6, L-Tyrosyl-D-alanyl-glycyl-L-(N-methyl)phenylalanyl-L-phenylglycinamide]: 0.19 mg/kg; for `C[C@@H](NC(=O)[C@@H](N)Cc1ccc(O)cc1)C(=O)NCC(=O)N(C)[C@@H](Cc1ccccc1)C(=O)N[C@@H](C(N)=O)c1ccccc1` [Example 7, L-Tyrosyl-D-alanyl-glycyl-L-(N-methyl)phenylalanyl-D-phenylglycinamide]: 3.82 mg/kg.

Take `CCN(C(=O)CNC(=O)[C@@H](C)NC(=O)[C@@H](N)Cc1ccc(O)cc1)[C@@H](Cc1ccccc1)C(=O)N[C@H](C(N)=O)c1ccccc1` [Example 8, L-Tyrosyl-D-alanyl-glycyl-L-(N-ethyl)phenylalanyl-L-phenylglycinamide]: the “Analgesic Activity, Hot Plate Test ED50” value came to 0.064 mg/kg. As to `CCCN(C(=O)CNC(=O)[C@@H](C)NC(=O)[C@@H](N)Cc1ccc(O)cc1)[C@@H](Cc1ccccc1)C(=O)N[C@H](C(N)=O)c1ccccc1` [Example 9, L-Tyrosyl-D-alanyl-glycyl-L-(N-n-propyl)phenylalanyl-L-phenylglycinamide], the “Analgesic Activity, Hot Plate Test ED50” value turned out to be 0.15 mg/kg. As for “L-Tyrosyl-D-alanyl-glycyl-L-phenylalanyl-D-p-hydroxyphenylglycinamide [Example 4]”, the “Analgesic Activity, Hot Plate Test ED50” value is 1.0 mg/kg. As to “L-Tyrosyl-D-alanyl-glycyl-L-phenylalanyl-D-phenylglycin-N-methylamide [Example 5]”, the “Analgesic Activity, Hot Plate Test ED50” value stood at 0.74 mg/kg.

Test system in the next assay: not given
Experiment: not given
To be noted: in vivo; cited from earlier work.
Consider Y[dA]GF[dF]-OH, for which the analgesic potential entry was “limited analgesic potential”.
